pIC50: −log10 of the molar value.
Key:
Format in all cases: cell-based
[1] = tested on: NCI-H1703 human non-small cell lung squamous carcinoma cells; assay: PDGFRA-related cell proliferation experiment (Cell Titer Glo); details: 72 h, 3 days, CTG, read-out: Cytological experiment PDGFRA IC50
Description: (§1) Functional effects of compounds on the proliferation of several cell lines were evaluated by Cell Titer Glo (CTG) studies in the present invention, and effects of the compounds on the proliferation of different cells were evaluated to determine the selectivity degree of the compounds. In the study, M-07e human cytomegalic leukemia cells (cat. No. CBP60791) from Nanjing Kebai Biotechnology Co., Ltd. were cultured in an incubator under conditions of RPMI1640 (Gibco, cat. No. 11875-119), 20% fetal bovine serum (Gibco, 10099-141), human 10 ng/mL GM-CSF granulocyte macrophage colony-stimulating factors (R&D, cat. No. 215-GM-010), 37° C. and 5% CO2; and Kasumi-1 human acute myeloblastic leukemia cells (cat. No. CBP60524) were cultured in an incubator under conditions of RPMI1640 (Gibco, cat. No. 11875-119), 20% fetal bovine serum (Gibco, 10099-141), 37° C. and 5% CO2; NCI-H1703 human non-small cell lung squamous carcinoma cells (cat. No. CBP60115) were cultured in an incubator under conditions of RPMI1640 (Gibco, cat. No. 11875-119), 10% fetal bovine serum (Gibco, 10099-141), 37° C. and 5% CO2; and MV-4-11 human acute monocytic leukemia cells (cat. No. CBP60522) were cultured in an incubator under conditions of IMDM (Invitrogen, cat. No. 12440053), 20% fetal bovine serum (Gibco, 10099-141), 37° C. and 5% CO2. Since ATP is an index for viable cell metabolism, CTG (Promega, #G7573) reagent is a homogeneous detection method for detecting the number of viable cells in the culture by quantifying ATP. Therefore, compound-mediated inhibition for cell proliferation/survival was evaluated by quantifying ATP content in cells, and the specific experimental process was as follows.
II) NCI-H1703 Human Non-Small Cell Lung Squamous Carcinoma Cell • 1.

[2] = tested on: M-07e human cytomegalic leukemia cells; assay: KIT-related cell proliferation experiment (Cell Titer Glo); details: 72 h, M-07e cells, SCF, 3 days, CTG, read-out: Cytological experiment KIT IC50
Description: as §1
I) M-07e Human Cytomegalic Leukemia Cell: • 1. The cells were plated into a tissue-culture-medium-treated 96-well plate (Costar #3904) with 3500 cells/well/80 μL fresh culture medium, and cultured for 24 hrs; • 2. the next day, 10 μL of culture medium containing testing compound with 10-fold of final concentration was added to each well; • 3.

[3] = tested on: MV-4-11 human acute monocytic leukemia cells; assay: FLT3-related cell proliferation experiment (Cell Titer Glo); details: MV4-11, 72 h, MV-4-11 cells, 3 days, CTG, read-out: Cytological experiment FLT3 IC50
Description: as §1
III) MV-4-11 Human Acute Monocytic Leukemia Cell • 1.

| Structure (SMILES) | pIC50 [1] | pIC50 [2] | pIC50 [3] |
| --- | --- | --- | --- |
| COc1cnc2[nH]cc(Cc3ccc(-c4cnc5n(c4=O)CCCN5C)nc3C)c2c1 [Example 22, 3-(5-((5-methoxy-1H-pyrrolo[2,3-b]pyridin-3-yl)methyl)-6-methylpyridin-2-yl)-9-methyl-6,7,8,9-tetrahydro-4H-pyrimido[1,2-a]pyrimidin-4-one] | < 5.70 | 5.82 | < 5.22 |
| Cc1nc(-c2cnc(NC(C)C)[nH]c2=O)ccc1Cc1c[nH]c2ncc(F)cc12 [Example 5, 5-(5-((5-fluoro-1H-pyrrolo[2,3-b]pyridin-3-yl)methyl)-6-methylpyridin-2-yl)-2-(isopropylamino)pyrimidin-4(3H)-one] | 5.74 | 5.95 | < 5.70 |
| Cc1nc(-c2cnc3n(c2=O)CCCN3C)ccc1Cc1c[nH]c2ncc(O)cc12 [Example 23] | < 5.22 | 5.73 | < 5.70 |
| Cc1nc(-c2cnc3n(c2=O)CCCN3C)ccc1Cc1c[nH]c2ncc(-c3cnn(C)c3)cc12 [Example 18, 9-methyl-3-(6-methyl-5-((5-(1-methyl-1H-pyrazol-4-yl)-1H-pyrrolo[2,3-b]pyridin-3-yl)methyl)pyridin-2-yl)-6,7,8,9-tetrahydro-4H-pyrimido[1,2-a]pyrimidin-4-one] | 6.35 | 6.63 | 6.30 |
| Cc1cnc2[nH]cc(Cc3ccc(-c4cnc5n(c4=O)CCCN5C)nc3C)c2c1 [Example 21, 9-methyl-3-(6-methyl-5-((5-methyl-1H-pyrrolo[2,3-b]pyridin-3-yl)methyl)pyridin-2-yl)-6,7,8,9-tetrahydro-4H-pyrimido[1,2-a]pyrimidin-4-one] | < 4.74 | 5.82 | < 4.74 |
| Cc1nc(-c2cnc3n(c2=O)CCCN3C)ccc1Cc1c[nH]c2ncccc12 [Example 14, 3-(5-((1H-pyrrolo[2,3-b]pyridin-3-yl)methyl)-6-methylpyridin-2-yl)-9-methyl-6,7,8,9-tetrahydro-4H-pyrimido[1,2-a]pyrimidin-4-one] | < 4.74 | 4.98 | < 4.74 |
| Cc1nc(-c2cnc(NC(C)C)n(C)c2=O)ccc1Cc1c[nH]c2ncccc12 [Example 7, 5-(5-((1H-pyrrolo[2,3-b]pyridin-3-yl)methyl)-6-methylpyridin-2-yl)-2-(isopropylamino)-3-methylpyrimidin-4(3H)-one] | < 5.22 | 6.08 | 5.89 |

Results, then the molecule that gave them:

| pIC50 [1] | pIC50 [2] | pIC50 [3] | Structure (SMILES) |
| --- | --- | --- | --- |
| < 5.22 | 5.92 | < 5.22 | Cc1nc(-c2cnc3n(c2=O)CCCN3C)ccc1Cc1c[nH]c2ncc(Cl)cc12 [Example 13, 3-(5-((5-chloro-1H-pyrrolo[2,3-b]pyridin-3-yl)methyl)-6-methylpyridin-2-yl)-9-methyl-6,7,8,9-tetrahydro-4H-pyrimido[1,2-a]pyrimidin-4-one] |
| 5.99 | 6.57 | 6.06 | CCN1CCCn2c1ncc(-c1ccc(Cc3c[nH]c4ncc(Cl)cc34)c(C)n1)c2=O [Example 16, 3-(5-((5-chloro-1H-pyrrolo[2,3-b]pyridin-3-yl)methyl)-6-methylpyridin-2-yl)-9-ethyl-6,7,8,9-tetrahydro-4H-pyrimido[1,2-a]pyrimidin-4-one] |
| < 4.74 | 5.50 | < 4.74 | Cc1nc(-c2cnc3n(c2=O)CCCN3C)ccc1Cc1c[nH]c2ncc(F)cc12 [Example 20, 3-(5-((5-fluoro-1H-pyrrolo[2,3-b]pyridin-3-yl)methyl)-6-methylpyridin-2-yl)-9-methyl-6,7,8,9-tetrahydro-4H-pyrimido[1,2-a]pyrimidin-4-one] |
| 7.24 | 7.41 | 7.56 | CCN1CCCn2c1ncc(-c1ccc(Cc3c[nH]c4ncc(-c5cnn(C)c5)cc34)c(C)n1)c2=O [Example 17] |
| < 5.70 | 6.10 | < 5.70 | Cc1nc(-c2cnc3n(c2=O)CCC(C)N3C)ccc1Cc1c[nH]c2ncc(Cl)cc12 (stereo not drawn) [Example 15, 3-(5-((5-chloro-1H-pyrrolo[2,3-b]pyridin-3-yl)methyl)-6-methylpyridin-2-yl)-8,9-dimethyl-6,7,8,9-tetrahydro-4H-pyrimido[1,2-a]pyrimidin-4-one] |
